Reference: paper PMC7044277 (Nature Communications, 2020)
Several values for one entry are separate records, joined by “and”; a condition that tells them apart may be missing. Equal entries are not always repeated.

Key:
Format in all cases: cell-based
[1] = biological target: 320 non-olfactory GPCRs (Homo sapiens, UniProt P14416)
[2] = biological target: T1, 320 non-olfactory GPCRs (Homo sapiens, UniProt P43115); conditions: receptor PTGER3; replicate values, Fig_4g
T1 construct: expressed in transfected cells; host or cells: HTLA cells

[3] = biological target: T2, 320 non-olfactory GPCRs (Homo sapiens, UniProt P04201); conditions: receptor MAS1; replicate values, Fig_4g
T2 construct: expressed in transfected cells; host or cells: HTLA cells

[4] = biological target: 320 non-olfactory GPCRs (Homo sapiens, UniProt P32239)
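Throughout, for Fold of Basal: compound tested at 1 µM final concentration.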
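Throughout, for GPCRome agonism screen response: fold over basal response of each receptor without drug.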

T2 sequence (P04201 whole entry): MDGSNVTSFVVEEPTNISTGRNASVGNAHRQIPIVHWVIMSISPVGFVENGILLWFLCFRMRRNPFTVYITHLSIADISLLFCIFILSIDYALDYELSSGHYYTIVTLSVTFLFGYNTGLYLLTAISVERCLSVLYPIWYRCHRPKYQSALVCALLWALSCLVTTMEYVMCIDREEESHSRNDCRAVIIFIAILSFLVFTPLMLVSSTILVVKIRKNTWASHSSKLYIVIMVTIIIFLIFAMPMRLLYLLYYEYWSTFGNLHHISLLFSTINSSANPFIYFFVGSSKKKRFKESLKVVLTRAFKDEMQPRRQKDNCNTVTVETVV
T1 sequence (P43115 whole entry): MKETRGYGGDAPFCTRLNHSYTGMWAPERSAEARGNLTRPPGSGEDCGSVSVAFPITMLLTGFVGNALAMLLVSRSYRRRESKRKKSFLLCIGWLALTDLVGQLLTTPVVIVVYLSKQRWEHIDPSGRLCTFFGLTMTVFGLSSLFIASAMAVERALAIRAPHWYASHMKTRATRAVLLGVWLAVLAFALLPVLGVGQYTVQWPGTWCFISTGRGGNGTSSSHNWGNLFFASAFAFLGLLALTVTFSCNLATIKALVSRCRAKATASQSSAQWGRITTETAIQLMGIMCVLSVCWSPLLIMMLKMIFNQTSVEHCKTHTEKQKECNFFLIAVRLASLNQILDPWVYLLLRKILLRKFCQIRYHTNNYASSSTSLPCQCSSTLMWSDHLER
Sequence of 320 non-olfactory GPCRs (Homo sapiens, UniProt P14416) (P14416 whole entry): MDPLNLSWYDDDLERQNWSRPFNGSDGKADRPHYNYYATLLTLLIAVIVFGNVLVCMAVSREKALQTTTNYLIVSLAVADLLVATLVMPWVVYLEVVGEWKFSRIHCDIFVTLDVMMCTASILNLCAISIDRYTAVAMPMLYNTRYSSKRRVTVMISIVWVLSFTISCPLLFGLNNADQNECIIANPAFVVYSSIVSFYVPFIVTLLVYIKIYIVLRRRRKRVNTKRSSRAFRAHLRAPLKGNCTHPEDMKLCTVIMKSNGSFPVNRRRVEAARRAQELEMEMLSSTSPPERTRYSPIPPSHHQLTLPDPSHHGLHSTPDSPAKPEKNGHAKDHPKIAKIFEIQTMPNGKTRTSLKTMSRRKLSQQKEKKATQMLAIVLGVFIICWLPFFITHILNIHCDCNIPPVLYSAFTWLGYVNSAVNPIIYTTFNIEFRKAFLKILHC
Sequence of 320 non-olfactory GPCRs (Homo sapiens, UniProt P32239) (P32239 whole entry): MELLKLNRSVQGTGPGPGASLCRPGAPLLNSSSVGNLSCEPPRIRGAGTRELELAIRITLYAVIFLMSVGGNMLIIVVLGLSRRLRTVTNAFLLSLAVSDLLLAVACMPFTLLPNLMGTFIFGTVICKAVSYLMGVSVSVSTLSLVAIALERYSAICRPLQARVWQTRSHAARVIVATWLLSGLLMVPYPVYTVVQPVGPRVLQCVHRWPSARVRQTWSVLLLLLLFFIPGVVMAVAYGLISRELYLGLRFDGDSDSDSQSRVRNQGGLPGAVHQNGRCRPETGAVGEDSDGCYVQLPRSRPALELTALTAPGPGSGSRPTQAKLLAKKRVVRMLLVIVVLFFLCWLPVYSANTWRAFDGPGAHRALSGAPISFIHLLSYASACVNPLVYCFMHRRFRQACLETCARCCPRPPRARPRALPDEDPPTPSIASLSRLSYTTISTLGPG

CCOc1cccc2cc(C(C)NCC3(O)CCCCC3)oc12 (stereo not shown) [O4LE6]
Fold of Basal [1]: 84.6178 and 80.3873 and 78.6628 and 75.3887
GPCRome agonism screen response [2]: 0.07165 and 0.9825 and 0.5999
GPCRome agonism screen response [3]: 0.7017 and 0.6641 and 0.72
Fold of Basal [4]: 1.067 and 0.8402 and 0.8391 and 1.015
